Measurements taken from ChEMBL document CHEMBL5137032, “Design, synthesis of DNA-interactive 4-thiazolidinone-based indolo-/pyrroloazepinone conjugates as potential cytotoxic and topoisomerase I inhibitors” (Eur J Med Chem, 2022).
Activity calls are given as the source filed them. No cut-off for these calls is given here.

Experiments:
HT-29 = assay: Cytotoxicity against human HT-29 cells assessed as cell growth inhibition incubated for 48 hrs by MTT assay; format: functional, cell-based; conditions: HT-29, 48 h
A549 [1] = assay: Anti-migration activity in human A549 cells assessed as distance travelled at 2.5 uM by wound healing assay based phase contrast microscopy; format: functional
A549 [2] = assay: Anti-migration activity in human A549 cells assessed as distance travelled at 2.5 uM incubated for 48 hrs by wound healing assay based phase contrast microscopy; format: functional
A549 [3] = assay: Anti-migration activity in human A549 cells assessed as distance travelled at 0.625 uM by wound healing assay based phase contrast microscopy; format: functional
A549 [4] = assay: Induction of apoptosis in human A549 cells assessed as necrotic cells at 0.625 uM incubated for 48 hrs by Annexin V-FITC/propidium iodide staining based flow cytometric analysis; format: functional
A549 [5] = assay: Induction of apoptosis in human A549 cells assessed as necrotic cells at 0.625 to 2.5 uM incubated for 48 hrs by Annexin V-FITC/propidium iodide staining based flow cytometric analysis; format: functional; conditions: dose 0.625-2.5 µM
SK-MEL-28 = assay: Cytotoxicity against human SK-MEL-28 cells assessed as cell growth inhibition incubated for 48 hrs by MTT assay; format: functional, cell-based; conditions: SK-MEL-28, 48 h
[6] = molecular target: DNA topoisomerase 2-alpha (Homo sapiens) (UniProt P11388); assay: Inhibition of DNA topoisomerase 2 (unknown origin) assessed as reduction in decatenation using kDNA as substrate incubated for 30 mins measured by agarose gel electrophoresis method
A549 [7] = assay: Induction of apoptosis in human A549 cells assessed as cell shrinkage at 0.625 to 2.5 uM incubated for 48 hrs by phase contrast microscopy; format: functional, cell-based; conditions: dose 0.625-2.5 µM, DDE = dose-dependent effect
[8] = molecular target: T1, DNA topoisomerase 1 (Homo sapiens) (UniProt P11387); assay: Inhibition of DNA topoisomerase 1 (unknown origin) assessed as reduction in pBR322 DNA relaxation at 10 uM incubated for 30 mins measured by agarose gel electrophoresis method relative to control
T1 sequence (whole entry): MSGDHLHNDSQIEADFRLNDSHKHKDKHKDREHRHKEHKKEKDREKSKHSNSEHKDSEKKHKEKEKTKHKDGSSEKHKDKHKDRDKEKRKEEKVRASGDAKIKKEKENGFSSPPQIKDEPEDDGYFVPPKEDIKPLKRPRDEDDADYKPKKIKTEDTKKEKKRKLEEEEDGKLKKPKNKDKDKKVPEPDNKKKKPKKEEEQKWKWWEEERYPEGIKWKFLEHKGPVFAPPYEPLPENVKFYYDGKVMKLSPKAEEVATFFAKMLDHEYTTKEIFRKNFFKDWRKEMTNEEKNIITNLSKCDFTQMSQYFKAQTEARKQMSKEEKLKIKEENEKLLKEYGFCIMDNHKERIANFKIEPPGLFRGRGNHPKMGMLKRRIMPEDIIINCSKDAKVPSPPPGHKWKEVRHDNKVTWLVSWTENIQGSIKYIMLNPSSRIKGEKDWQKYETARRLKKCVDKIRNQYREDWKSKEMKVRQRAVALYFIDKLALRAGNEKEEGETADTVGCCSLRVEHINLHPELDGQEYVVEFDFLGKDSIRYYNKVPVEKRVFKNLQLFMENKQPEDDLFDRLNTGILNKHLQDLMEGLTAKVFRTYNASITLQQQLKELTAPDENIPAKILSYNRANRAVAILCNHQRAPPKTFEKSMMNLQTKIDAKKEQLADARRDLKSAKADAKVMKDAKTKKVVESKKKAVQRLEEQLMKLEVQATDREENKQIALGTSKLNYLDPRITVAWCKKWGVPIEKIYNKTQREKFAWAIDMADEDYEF

Calf thymus DNA [9] = assay: Binding affinity to calf thymus DNA assessed as hyperchromicity at 10 uM by circular dichroism spectroscopy; format: nucleic-acid assay; conditions: Bos taurus
A549 [10] = assay: Induction of apoptosis in human A549 cells assessed as chromatin condensation at 0.625 to 2.5 uM incubated for 48 hrs by AO/EB staining based fluorescence microscopy; format: functional, cell-based; conditions: dose 0.625-2.5 µM, DDE = dose-dependent effect
A549 [11] = assay: Anti-migration activity in human A549 cells assessed as distance travelled at 0.625 uM incubated for 48 hrs by wound healing assay based phase contrast microscopy; format: functional
A549 [12] = assay: Induction of intracellular ROS generation in human A549 cells at 0.625 to 2.5 uM incubated for 48 hrs by […] fluorescence microscopic analysis; format: functional, cell-based; conditions: dose 0.625-2.5 µM, DDE = dose-dependent effect
Calf thymus DNA [13] = assay: Binding affinity to calf thymus DNA assessed as hyperchromicity at 10 to 20 uM by UV-Vis spectroscopic analysis; format: nucleic-acid assay; conditions: Bos taurus; dose 10-20 µM
A549 [14] = assay: Induction of apoptosis in human A549 cells assessed as changes in nuclear morphology at 0.625 to 2.5 uM incubated for 48 hrs by DAPI staining based fluorescence microscopic analysis; format: functional, cell-based; conditions: dose 0.625-2.5 µM
A549 [15] = assay: Induction of apoptosis in human A549 cells assessed as nuclear fragmentation at 0.625 to 2.5 uM incubated for 48 hrs by DAPI staining based fluorescence microscopic analysis; format: functional, cell-based; conditions: dose 0.625-2.5 µM
A549 [16] = assay: Induction of apoptosis in human A549 cells assessed as necrotic cells at 2.5 uM incubated for 48 hrs by Annexin V-FITC/propidium iodide staining based flow cytometric analysis; format: functional
A549 [17] = assay: Anti-migration activity in human A549 cells assessed as distance travelled at 1.25 uM by wound healing assay based phase contrast microscopy; format: functional
A549 [18] = assay: Induction of apoptosis in human A549 cells assessed as changes in cell morphology at 0.625 to 2.5 uM incubated for 48 hrs by phase contrast microscopy; format: functional, cell-based; conditions: dose 0.625-2.5 µM
A549 [19] = assay: Induction of apoptosis in human A549 cells assessed as late apoptotic cells at 2.5 uM incubated for 48 hrs by Annexin V-FITC/propidium iodide staining based flow cytometric analysis; format: functional
A549 [20] = assay: Induction of apoptosis in human A549 cells assessed as membrane blebbing at 0.625 to 2.5 uM incubated for 48 hrs by AO/EB staining based fluorescence microscopy; format: functional, cell-based; conditions: dose 0.625-2.5 µM, DDE = dose-dependent effect
A549 [21] = assay: Induction of apoptosis in human A549 cells assessed as cell shrinkage at 0.625 to 2.5 uM incubated for 48 hrs by AO/EB staining based fluorescence microscopy; format: functional; conditions: dose 0.625-2.5 µM, DDE = dose-dependent effect
A549 [22] = assay: Induction of apoptosis in human A549 cells assessed as cell membrane disruption at 0.625 to 2.5 uM incubated for 48 hrs by phase contrast microscopy; format: functional, cell-based; conditions: dose 0.625-2.5 µM, DDE = dose-dependent effect
DNA topoisomerase 1 = molecular target: T2, DNA topoisomerase 1 (Homo sapiens, UniProt P11387); assay: Inhibition of human DNA topoisomerase 1 assessed as reduction in pBR322 DNA relaxation incubated for 1 hrs measured by agarose gel electrophoresis method
T2 sequence (P11387 whole entry): T1 sequence (whole entry)

Calf thymus DNA [23] = assay: Binding affinity to calf thymus DNA assessed as increase in viscosity at 15 uM by ethidium bromide-Hoechst 33342 staining based analysis; format: nucleic-acid assay; conditions: Bos taurus
A549 [24] = assay: Induction of apoptosis in human A549 cells assessed as late apoptotic cells at 0.625 to 1.25 uM incubated for 48 hrs by Annexin V-FITC/propidium iodide staining based flow cytometric analysis; format: functional, cell-based; conditions: dose 0.625-1.25 µM
[25] = Cytotoxicity against rat NRK cells assessed as cell growth inhibition incubated for 48 hrs by MTT assay; format: toxicity, cell-based
A549 [26] = assay: Induction of apoptosis in human A549 cells assessed as reduction on viable cells at 0.625 to 2.5 uM incubated for 48 hrs by phase contrast microscopy; format: functional, cell-based; conditions: dose 0.625-2.5 µM, DDE = dose-dependent effect
HCT-116 = assay: Cytotoxicity against human HCT-116 cells assessed as cell growth inhibition incubated for 48 hrs by MTT assay; format: functional, cell-based; conditions: HCT-116, 48 h
A549 [27] = assay: Anti-migration activity in human A549 cells assessed as distance travelled at 1.25 uM incubated for 48 hrs by wound healing assay based phase contrast microscopy; format: functional
A549 [28] = assay: Inhibition of colony formation in human A549 cells assessed as decrease in colonies at 0.625 to 2.5 uM incubated for 7 days by crystal violet staining based assay; format: functional, cell-based; conditions: dose 0.625-2.5 µM, time 7.0 day, DDE = dose-dependent effect
A549 [29] = assay: Induction of apoptosis in human A549 cells assessed as chromatin condensation at 0.625 to 2.5 uM incubated for 48 hrs by DAPI staining based fluorescence microscopic analysis; format: functional, cell-based; conditions: dose 0.625-2.5 µM
MCF7 = assay: Cytotoxicity against human MCF7 cells assessed as cell growth inhibition incubated for 48 hrs by MTT assay; format: functional, cell-based; conditions: MCF7, 48 h
A549 [30] = assay: Cytotoxicity against human A549 cells assessed as cell growth inhibition incubated for 48 hrs by MTT assay; format: functional, cell-based; conditions: A549, 48 h
A549 [31] = assay: Inhibition of cell migration in human A549 cells at 0.625 to 2.5 uM incubated for 48 hrs by wound healing assay based phase contrast microscopy; format: functional; conditions: dose 0.625-2.5 µM, DDE = dose-dependent effect
A549 [32] = assay: Induction of apoptosis in human A549 cells assessed as apoptotic body fragmentation at 0.625 to 2.5 uM incubated for 48 hrs by AO/EB staining based fluorescence microscopy; format: functional, cell-based; conditions: dose 0.625-2.5 µM, DDE = dose-dependent effect

Chain of DNA topoisomerase 2-alpha (Homo sapiens) (P11388 whole entry): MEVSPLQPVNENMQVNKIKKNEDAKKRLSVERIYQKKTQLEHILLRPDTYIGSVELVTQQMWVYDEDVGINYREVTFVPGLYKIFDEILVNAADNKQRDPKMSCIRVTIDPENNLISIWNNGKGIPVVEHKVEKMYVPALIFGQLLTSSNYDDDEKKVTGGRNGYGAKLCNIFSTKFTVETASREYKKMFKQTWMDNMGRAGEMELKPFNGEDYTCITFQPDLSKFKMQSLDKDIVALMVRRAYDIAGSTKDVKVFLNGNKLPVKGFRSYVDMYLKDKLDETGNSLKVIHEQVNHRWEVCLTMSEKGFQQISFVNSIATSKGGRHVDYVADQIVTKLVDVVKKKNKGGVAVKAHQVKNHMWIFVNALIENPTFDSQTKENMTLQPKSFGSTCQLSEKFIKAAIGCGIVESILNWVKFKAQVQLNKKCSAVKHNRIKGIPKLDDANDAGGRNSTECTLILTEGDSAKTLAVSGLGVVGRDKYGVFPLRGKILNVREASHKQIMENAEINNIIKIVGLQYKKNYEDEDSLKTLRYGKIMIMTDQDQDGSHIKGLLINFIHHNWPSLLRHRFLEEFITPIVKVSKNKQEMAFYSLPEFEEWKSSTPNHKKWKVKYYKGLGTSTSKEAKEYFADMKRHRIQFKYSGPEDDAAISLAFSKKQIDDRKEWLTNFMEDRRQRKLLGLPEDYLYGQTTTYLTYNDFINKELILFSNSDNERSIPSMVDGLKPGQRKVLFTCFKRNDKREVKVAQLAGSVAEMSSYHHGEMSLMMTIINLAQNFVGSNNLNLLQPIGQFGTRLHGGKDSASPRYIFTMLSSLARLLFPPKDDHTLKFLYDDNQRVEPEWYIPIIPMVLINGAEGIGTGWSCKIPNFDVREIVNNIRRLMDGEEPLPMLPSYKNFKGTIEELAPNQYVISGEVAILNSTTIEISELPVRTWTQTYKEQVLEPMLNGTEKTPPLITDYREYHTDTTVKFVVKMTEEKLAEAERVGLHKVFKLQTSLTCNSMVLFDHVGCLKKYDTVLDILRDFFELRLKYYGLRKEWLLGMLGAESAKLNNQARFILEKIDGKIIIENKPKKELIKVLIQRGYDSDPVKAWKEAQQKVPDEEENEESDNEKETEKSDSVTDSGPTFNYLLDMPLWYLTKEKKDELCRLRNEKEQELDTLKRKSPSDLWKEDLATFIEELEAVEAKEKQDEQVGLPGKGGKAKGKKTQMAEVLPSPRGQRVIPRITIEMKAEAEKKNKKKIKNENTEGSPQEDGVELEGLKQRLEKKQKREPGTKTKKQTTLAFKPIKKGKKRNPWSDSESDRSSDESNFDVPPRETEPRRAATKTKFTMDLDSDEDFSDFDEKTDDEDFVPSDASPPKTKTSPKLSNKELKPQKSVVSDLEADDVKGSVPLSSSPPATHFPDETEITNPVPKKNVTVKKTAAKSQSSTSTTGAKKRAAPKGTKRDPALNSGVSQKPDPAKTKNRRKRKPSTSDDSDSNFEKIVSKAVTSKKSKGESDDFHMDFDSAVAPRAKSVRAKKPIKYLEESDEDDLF

inhibition [6]: Active
inhibition [8]: 28%
Activity (Calf thymus DNA [9]): Active
Activity (Calf thymus DNA [13]): Active
IC50 (DNA topoisomerase 1): 48 µM
Activity (Calf thymus DNA [23]): Active
SMILES: Cc1ccc(C/N=C2\NC(=O)/C(=C3\CCNC(=O)c4[nH]c5ccccc5c43)S2)cc1
IC50 (HT-29): 10.9 µM
Activity (A549 [1]): 363.56 um
Activity (A549 [2]): 445.52 um
Activity (A549 [3]): 298.42 um
Activity (A549 [4]): 4.8%
Activity (A549 [5]): 2.97%
IC50 (SK-MEL-28): 3.02 µM
Activity (A549 [7]): Dde
Activity (A549 [10]): Dde
Activity (A549 [11]): 259.59 um
Activity (A549 [12]): Dde
Activity (A549 [14]): Active
Activity (A549 [15]): Active
Activity (A549 [16]): 5.96%
Activity (A549 [17]): 391.93 um
Activity (A549 [18]): Active
Activity (A549 [19]): 3.09%
Activity (A549 [20]): Dde
Activity (A549 [21]): Dde
Activity (A549 [22]): Dde
Activity (A549 [24]): Active
IC50 at 48 h [25]: 53.2 µM
Activity (A549 [26]): Dde
IC50 (HCT-116): 6.55 µM
Activity (A549 [27]): 293.25 um
inhibition (A549 [28]): Dde
Activity (A549 [29]): Active
IC50 (MCF7): 8.03 µM
IC50 (A549 [30]): 1.24 µM
inhibition (A549 [31]): Dde
Activity (A549 [32]): Dde
